This data set in a line: Solubility in water / acidity. In kind it is physicochemical.

Structures are written as SMILES.

In the case of `CC(CCC(=O)O)C1CCC2C3C(OS(=O)(=O)O)CC4CC(OS(=O)(=O)O)CCC4(C)C3CCC12C` (stereo not drawn) [ursodeoxycholic O-sulphate], the Solubility in water entry is listed as “very soluble in water”. Besides, where the note is “free acid”, the Acidity entry is reported as “very high acidity”. The Solubility in water result (listed as ursosulphate acid) is reported as “very soluble in water with acid reaction”.

Source of the values: patent publication US4565811A, “Sodium salt of ursodeoxycholic sulphate” (Istituto Biologico Chemioterapico "ABC" S.p.A., priority 1983, dated 1986).
